Assay results reported in patent US6908904B2, “Pharmaceutical preparation and method for treatment of diabetes” (priority 2000, dated 2005).

Legend:
[1] = uptake of radiolabeled sulfatide analogues in pancreas after intraperitoneal injection; format: in vivo; settings: 150 nmol i.p., ob/ob mice, FIG. 6B; for degradation or accumulation in pancreas, 6 h vs 24 h: 6 h and 24 h after i.p.; for uptake in pancreas: tritium-labeled, scintillation counting
From the text: (§1) Native sulfatide isolated from pig brain and structurally characterized by mass spectrometry was modified with regard to the fatty acid composition and tritiated in the sphingosine base. These analogues were administrated intraperitoneally to diabetic ob/ob mice and their uptake in liver and pancreas analyzed after lipid extraction of dissected organs. The aim was to explore whether the exogenously administrated sulfatide was taken up by pancreas and thereby open a possibility to substitute for the quantitative and qualitative alterations of sulfatide seen in the diabetes type 2 models.
(§2) Sulfatide was tritium labeled in the ceramide portion by catalytic hydrogenation with Pd(OAc)2/NaB^3H4. The labeled sulfatide was mixed with unlabelled sulfatide to the required specific activity.
(§3) The fatty acid was removed from native pig brain sulfatide by weak alkaline methanolysis at 80° C. The formed lysosulfatide was, after chromatographic purification, reacylated with respective fatty acid chloride in aqueous sodium acetate-tetrahydrofuran.
(§4) These mice were 12 weeks old and the mean value of the highest blood glucose was […]. At sacrifice the mice were anaesthetized with CO2 and killed by dislocation of the neck vertebrae. This is outlined in Table 2. The liver and pancreas were dissected immediately. The organ were quick-frozen and thawed at analyses (within 4 days).
(§5) The organs were homogenized and the lipids extracted with chloroform/methanol/water. The lipid extracts were evaporated, re-dissolved in chloroform/methanol/water and separated by silica gel chromatography to remove other lipids. The sulfatide containing fraction was used for counting by scintillation.
(§6) The results of the scintillation measurement are presented in FIG. 6A and FIG. 6B—FIG. 6A presenting liver data and FIG. 6B pancreas data—as cpm uptake in total, cpm/mg wet weight of tissue, cpm/mg of tissue protein and % of given cpm residing in the organ

[2] = uptake of radiolabeled sulfatide analogues in liver after intraperitoneal injection; format: in vivo; settings: 150 nmol i.p., ob/ob mice, FIG. 6A; for degradation or accumulation in liver, 6 h vs 24 h: 6 h and 24 h after i.p.; for uptake in liver: tritium-labeled, scintillation counting
From the text: as §1, §2, §3, §4, §5, §6

[3] = further uptake study of sulfatide analogues in pancreas (Example 3); format: in vivo; settings: i.p., ob/ob mice; FIGS. 7-10
Protocol: These experiments were performed as in Example 3, but only the uptake in pancreas was studies.
ob/ob mice was thus given C12, C14, C16 och C18 analogues of sulfatide intraperitoneally in the way described above.
The results are illustrated in FIGS. 7-10.

insulin crystals = assay: in vitro preservation of insulin crystals stored with sulfatide isoforms; settings: compared to C24:0 analogue, native pig brain sulfatide and insulin stored without sulfatide, FIG. 5
From the text: The preservation of insulin crystals, a requirement for storage of an insulin pool that can be released upon raised blood glucose, is increased for sulfatide C16:0 compared to other sulfatide isoforms. […] This is illustrated in FIG. 5.

[4] = tested on: T-cell response to insulin; assay: T-cell response to insulin; format: cell-based; settings: sulfatide in combination with insulin
From the text: The fact that sulfatide is processed through the same intracellular route as insulin further supports the findings according to the invention. Sulfatide is involved in normal processing of insulin, from proinsulin to secreted monomeric insulin. It is involved in the folding and oxidation of proinsulin, and is thus required for insulin formation, it is involved in the preservation of insulin crystals in secretory granules, and is thus required for the storage of the insulin pool, prevents deterioration and fibril formation, and it is involved in the transformation of insulin from hexamer via dimer to monomer form at secretion, and this last conversion to monomer is required for biological activity. Furthermore, sulfatide might be needed in combination with insulin in order to affect the insulin receptors in a proper way and to avoid development of insulin resistance.

[5] = listed as C16:0 sulfatide analogue

Row | Compound | degradation or accumulation in pancreas, 6 h vs 24 h [1] | degradation or accumulation in pancreas, 6 h vs 24 h ([1]; listed as C8:0) | uptake in pancreas [1] | degradation or accumulation in liver, 6 h vs 24 h [2] | uptake in liver [2] | uptake in liver ([2]; listed as C8:0) | degradation or accumulation in pancreas, 6 h vs 24 h ([1]; listed as C 16) | degradation or accumulation in pancreas, 6 h vs 24 h [1, 5] | uptake in pancreas ([1]; listed as C16) | uptake in pancreas [1, 5] | uptake in pancreas (Example 3) [3] | preservation of insulin crystals (insulin crystals) | preservation of insulin crystals (insulin crystals; listed as isoform of sulfatide with 16 carbon atoms in the fatty acid) | degradation or accumulation in pancreas, 6 h vs 24 h ([1]; listed as C24) | T-cell response to insulin [4]
1 | CCCCCCCCCCCCC/C=C/[C@@H](O)[C@H](CO[C@@H]1O[C@H](CO)[C@H](O)[C@H](OS(=O)(=O)O)[C@H]1O)NC(=O)CCCCCCC [C8:0 analogue] | neither accumulation or degradation was noticed | no accumulation | much lower than for the other two analogues | rapidly degraded | preferentially taken up in liver | rapidly removed from circulation to the liver and degraded | – | – | – | – | – | – | – | – | –
2 | CCCCCCCCCCCCC/C=C/[C@@H](O)[C@H](CO[C@@H]1O[C@H](CO)[C@H](O)[C@H](OS(=O)(=O)O)[C@H]1O)NC(=O)CCCCCCCCCCCCCCC [C16:0 analogue] | – | – | – | slight accumulation | higher than for the C24:0 | – | accumulation | accumulation after 24 hours | efficiently taken up in pancreas | most efficiently taken up | most interesting results | significant effect on the preservation | significant effect on the preservation of insulin crystals | – | –
3 | CCCCCCCCCCCCC/C=C/[C@@H](O)[C@H](CO[C@@H]1O[C@H](CO)[C@H](O)[C@H](OS(=O)(=O)O)[C@H]1O)NC(=O)CCCCCCCCCCCCCCCCCCCCCCC [C24:0 analogue] | slight reduction | – | efficiently taken up in pancreas | slight reduction | lower uptake in liver as compared to the C8:0 analogue | – | – | – | – | – | – | – | – | slight degradation | –
4 | galactosylceramide-3-O-sulfate [sulfatide] | – | – | – | – | – | – | – | – | – | – | – | – | – | – | inhibited the T-cell response to insulin
